What all share (type): in vivo, Sprague-Dawley rats
Assay [1] deals with ventral prostate weight. Kind of assay: Oral androgenic potency, ventral prostate weight assay in orchidectomized immature rats (gavage daily for seven days). Conditions: for oral activity relative to methyltestosterone (potency ratio): oral administration, summary statement, standard methyltestosterone; for oral androgenic activity, times as potent as methyltestosterone: gavage daily for 7 days in 10% ethanol/sesame oil (oily carrier), ventral prostate weight. As for the experimental part: (§1) Immature (about 21-day-old) Sprague-Dawley rats were orchidectomized under anesthesia, and randomly assignee to groups of ten animals for each dose level of the active undergoing testing. Each active was dissolved in 10% ethanol/sesame oil and administered by gavage (oral) each day for seven days beginning on the date of the orchidectomy. The animals were sacrificed 24 hours after the last dose, and the ventral prostate and seminal vesicles were excised, cleaned of fat and connective tissue, blotted on moist filter paper and weighed to the nearest 0.1 mg. See, e.g., Hershberger, L. et al, Myotrophic Activity of 19-nortestosterone And Other Steroids Determined By Modified Levator And Muscle Method, Proc. Soc. Exptl. Biol. Med 83 175–180 (1953). Regression analysis was performed by conventional methods using a PROPHET data management system. See, e.g., Bliss, C., The Statistics of Bioassay (Academic Press, New York, 1952); Hollister, C., Nucleic Acids Res. 16 1873–75 (1988). Ventral prostate weight was used as the endpoint because it is the sensitive organ to androgenic stimulation.
as §1, with “(oral) or subcutaneous injection” for “(oral)”, “mg.” for “mg. See, e.g., Hershberger, L. et al, Myotrophic Activity of 19-nortestosterone And Other Steroids Determined By Modified Levator And Muscle Method, Proc. Soc. Exptl. Biol. Med 83 175–180 (1953).”, “system.” for “system. See, e.g., Bliss, C., The Statistics of Bioassay (Academic Press, New York, 1952); Hollister, C., Nucleic Acids Res. 16 1873–75 (1988).”
Immature (about 21-day-old) Sprague-Dawley rats were orchidectomized under anesthesia, and randomly assignee to groups of ten animals for each dose level of the active undergoing testing. Four dosage forms were prepared. The first two forms constituted a solution of each active in 10% ethanol/sesame oil. The third and fourth dosage forms constituted a suspension of each active in an aqueous carrier (as described in Example 2, supra). These dosage forms were then administered by gavage (oral) to separate animal groups each day for seven days beginning on the date of the orchidectomy. Each carrier was also administered (alone) to separate groups of animals as a control. The animals were sacrificed 24 hours after the last dose, and the ventral prostate and seminal vesicles were excised, cleaned of fat and connective tissue, blotted on moist filter paper and weighed to the nearest 0.1 mg. See, e.g., Hershberger, L. et al, Myotrophic Activity of 19-nortestosterone And Other Steroids Determined By Modified Levator And Muscle Method, Proc. Soc. Exptl. Biol. Med. 83 175–180 (1953). Regression analysis was performed by conventional methods using a PROPHET data management system. See, e.g., Bliss, C., The Statistics of Bioassay (Academic Press, New York, 1952); Hollister, C., Nucleic Acids Res. 16 1873–75 (1988). Ventral prostate weight was used as the endpoint because it is the sensitive organ to androgenic stimulation.
Immature (about 21 day old) Sprague male rats were orchidectomized under anesthesia, and randomly assignee to groups often animals for each dose level of the active undergoing testing. Animals were maintained under standard conditions of housing and had free access to food and water. Illumination was controlled for 14 hour periods of light and 10 hours of darkness. Each active was dissolved in 10% ethanol/sesame oil and administered by gavage (oral) each day for seven days beginning on the date of the orchidectomy. […]

The subject of assay [2] is ventral prostate weight. The experiment in a line: Subcutaneous androgenic potency, ventral prostate weight assay in orchidectomized immature rats (injection daily for seven days). Conditions: ventral prostate weight assay following subcutaneous administration; alcohol of G = 1.0 (assigned); value is for the free alcohol of the listed ester. As for the experimental part:
as §1, with “(oral) or subcutaneous injection” for “(oral)”, “mg.” for “mg. See, e.g., Hershberger, L. et al, Myotrophic Activity of 19-nortestosterone And Other Steroids Determined By Modified Levator And Muscle Method, Proc. Soc. Exptl. Biol. Med 83 175–180 (1953).”, “system.” for “system. See, e.g., Bliss, C., The Statistics of Bioassay (Academic Press, New York, 1952); Hollister, C., Nucleic Acids Res. 16 1873–75 (1988).”
as §1, with “subcutaneous injection” for “gavage (oral)”, “Bid. Med.” for “Biol. Med”
Immature (about 22-day-old) Sprague-Dawley male rats were orchidectomized under anesthesia, and randomly assignee to groups of ten animals for each dose level of the active undergoing testing. […] Illumination was controlled for 14 hour periods of light and 10 hours of darkness.
Each active was administered by subcutaneous injection of 0.6 mg of test material in aqueous suspending vehicle (ASV) and/or an oily vehicle (10% ethanol/sesame oil) on the day of surgery. Testosterone enanthate in sesame oil was used as a standard. The ventral prostate and seminal vesicles were excised, cleaned of fat and connective tissue, blotted on moist filter paper and weighed to the nearest 0.1 mg. Regression analysis was performed by conventional methods using a PROPHET data management system. Ventral prostate weight was used as the endpoint because it is the sensitive organ to androgenic stimulation.

The test system of assay [3] is ventral prostate weight. The experiment in a line: Duration of androgenic activity after subcutaneous injection, ventral prostate weight over weeks in orchidectomized immature rats. Conditions: for area under the curve (AUC, trapezoidal rule) of ventral prostate weight: 12 week period, FIG. 22. As for the experimental part: Immature (about 21-day-old) Sprague-Dawley rats were orchidectomized under anesthesia, and randomly assignee to groups of ten animals for each dose level of the active undergoing testing. Each active was administered by subcutaneous injection each day for seven days beginning on the date of the orchidectomy. The animals were sacrificed 24 hours after the last dose, and the ventral prostate and seminal vesicles were excised, cleaned of fat and connective tissue, blotted on moist filter paper and weighed to the nearest 0.1 mg. Regression analysis was performed by conventional methods using a PROPHET data management system. Ventral prostate weight was used as the endpoint because it is the sensitive organ to androgenic stimulation.
Except for testosterone enanthate, each active was formulated in two different carriers: (1) an aqueous suspension and (2) in sesame oil. Testosterone enanthate was formulated using the sesame oil carrier only, because it exists as a liquid at room temperature and could not therefore be formulated as an aqueous suspension.
The carrier used to provide the aqueous suspension was formulated as follows: 1 g benzyl alcohol, 0.5 g sodium carboxylethyl cellulose 50, 0.376 g disodium hydrogen phosphate dihydrate, 1.495 g sodium dihydrogen phosphate dihydrate, with water for injection (WFI) being added to bring volume of the carrier up to 100 ml.
Each formulation was prepared at a concentration of 0.6 mg/0.2 ml.
Immature (about 21-day-old) Sprague-Dawley rats were orchidectomized under anesthesia, and randomly assignee to groups of 40 or more. Animals received a single subcutaneous injection of 0.6 mg of each ester in 0.2 ml of an aqueous suspending carrier and/or oily carrier (10% ethanol/90% sesame oil or ethyl oleate) on the date of the orchidectomy. In cases where the ester was not solid at room temperature, 10% ethanol/sesame oil or ethyl oleate was used as the carrier. In this example, the carrier used to provide the aqueous suspension was formulated as follows: 1 g benzyl alcohol, 0.5 g sodium carboxylethyl cellulose 50, 0.376 g disodium hydrogen phosphate dihydrate, 1.495 g sodium dihydrogen phosphate dihydrate, with water for injection (WFI) being added to bring volume of the carrier up to 100 ml.
Five animals from each group were sacrificed at weekly or biweekly intervals, and the ventral prostate and seminal vesicles were excised, cleaned of fat and connective tissue, blotted on moist filter paper and weighed to the nearest 0.1 mg.
Ventral prostate weight was used as the endpoint because it is the sensitive organ to androgenic stimulation. Regression analysis was performed by conventional methods using the PROPHET data management system previously identified.
Immature (about 21-day-old) Sprague-Dawley rats were orchidectomized under anesthesia, and randomly assignee to groups of 40 or more. Animals received a single subcutaneous injection of 0.6 mg of the undecanoate in 0.2 ml of an aqueous suspending carrier and/or oily carrier (10% ethanol/90% sesame oil containing 5 mg/ml chlorobutanol as a preservative, or ethyloleate) on the date of the orchidectomy. The enanthate ester was formulated using the 10% ethanol/sesame oil or ethyloleate carrier as a first standard, with the 10% ethanol/sesame oil carrier used as a second standard.
In this example, the carrier used to provide the aqueous suspension was formulated as follows: 1 g benzyl alcohol, 0.5 g sodium carboxylethyl cellulose 50, 0.376 g disodium hydrogen phosphate dihydrate, 1.495 g sodium dihydrogen phosphate dihydrate, with water for injection (WFI) being added to bring volume of the carrier up to 100 ml.
Immature (about 21-day-old) Sprague-Dawley rats were orchidectomized under anesthesia, and randomly assignee to groups of 40 or more. […] The enanthate ester was formulated using the 10% ethanol/sesame oil or ethyloleate carrier as a first standard, with the 10% ethanol/sesame oil carrier used as a second standard.

Consider `CCCCCCCCCCC(=O)O[C@H]1CC[C@H]2[C@H]3[C@H]([C@@H](C)C[C@]12C)[C@H]1CCC(=O)C=C1C[C@H]3C`, for which, in the assay with ventral prostate weight [1], the “oral activity relative to methyltestosterone (potency ratio)” value was “about twice”.
Still for that read-out and setting: next, `CCCCCCCCCCC(=O)O[C@H]1CC=C2[C@H]3[C@H]([C@@H](C)C[C@@]21C)[C@H]1CCC(=O)C=C1C[C@H]3C`: “at least about twice”; `CCCCC1CCC(C(=O)O[C@H]2CC=C3[C@H]4[C@H]([C@@H](C)C[C@@]32C)[C@H]2CCC(=O)C=C2C[C@H]4C)CC1` (stereo partly shown): “at least about six times”.
Regarding `CCCC[C@H]1CC[C@H](C(=O)O[C@H]2CC[C@H]3[C@H]4[C@H](CC[C@]23C)[C@H]2CCC(=O)C=C2C[C@H]4C)CC1` [A, 7α-Methyl-19-nortestosterone-17β-bucyclate], the “Androgenic Potency (activity of corresponding alcohol)” value (from here on “Androgenic Potency”) in the assay with ventral prostate weight [2] was 8.1^3.
In the case of `CCCC[C@H]1CC[C@H](C(=O)O[C@H]2CC[C@H]3[C@H]4[C@H](CC[C@]23C)[C@H]2CCC(=O)C[C@@H]2C[C@H]4C)CC1` [B, 7α-Methyl-5α-dihydro-19-nortestosterone-17β-bucyclate], the “Androgenic Potency” value in the assay with ventral prostate weight [2] worked out at 1.2.
On the same count and under the same terms, next, `CCCC[C@H]1CC[C@H](C(=O)O[C@H]2CC=C3[C@@H]4[C@H](C)CC5=CC(=O)CC[C@]5(C)[C@H]4CC[C@@]32C)CC1` [C, 7α-Methyl-14-dehydro-testosterone-17β-bucyclate]: 61.1.
Take `CCCC[C@H]1CC[C@H](C(=O)O[C@H]2CC=C3[C@H]4[C@H](CC[C@@]32C)[C@H]2CCC(=O)C=C2C[C@H]4C)CC1` [CDB-4327A, 7α-Methyl-14-dehydro-19-nortestosterone-17β-bucyclate, reference compound]: in the assay on ventral prostate weight [3] (0.6 mg in 0.2 ml oily carrier, up to 20 weeks, FIG. 9), the “ventral prostate weight over time after single subcutaneous injection (in words)” value is given as “surprising stimulation of ventral prostate size over the entire 20-week observation period”.
With `C[C@@H]1CC2=CC(=O)CC[C@@H]2[C@@H]2[C@@H]1C1=CC[C@H](O)[C@@]1(C)C[C@@H]2C` [Compound III, 7α,11β-dimethyl-17β-hydroxyestra-4,14-dien-3-one], in the assay on ventral prostate weight [1], the “oral activity relative to methyltestosterone (potency ratio)” value is approximately 1.96.
For `CCCCCCCCCCC(=O)O[C@H]1CC=C2[C@H]3[C@H]([C@@H](C)C[C@@]21C)[C@H]1CCC(=O)C=C1C[C@H]3C` [Compound IV, 7α,11β-dimethyl-17β-hydroxyestra-4,14-dien-3-one 17-undecanoate], the “oral androgenic activity, times as potent as methyltestosterone” value in the assay with ventral prostate weight [1] is recorded as “about two to about nine times”. Also, in the assay on ventral prostate weight [3] (parenteral administration, relative to other actives), the “duration of activity on parenteral administration (summary in words)” value is reported as “not long-acting”.
For `CCCCC1CCC(C(=O)O[C@H]2CC=C3[C@H]4[C@H]([C@@H](C)C[C@@]32C)[C@H]2CCC(=O)C=C2C[C@H]4C)CC1` (stereo partly drawn) [Compound V, 7α,11β-dimethyl-17β-hydroxyestra-4,14-dien-3-one 17β-4-n-butylcyclohexanecarboxylate], the “oral androgenic activity, times as potent as methyltestosterone” value in the assay on ventral prostate weight [1] is “about six to about eighteen times”. For the same molecule, the “ventral prostate weight over time after single subcutaneous injection (in words)” value in the assay on ventral prostate weight [3] (0.6 mg in 0.2 ml aqueous vehicle) is “most dramatic increases and maintenance of ventral prostate weight”. Besides, the “AUC of ventral prostate weight, times greater than for testosterone enanthate in oily carrier” value in the assay with ventral prostate weight [3] (active in aqueous vehicle versus testosterone enanthate in sesame oil/oily carrier, single subcutaneous 0.6 mg) is recorded as “about 3 times”. In addition, in the assay with ventral prostate weight [3] (single subcutaneous 0.6 mg in aqueous vehicle), the “area under the curve (AUC, trapezoidal rule) of ventral prostate weight” value was 1521 mg-weeks.
Turning to `CCCCC1CCC(C(=O)OC2CCCC3C4C(C)CC5=CC(=O)CCC5(C)C4CCC23C)CC1` [D, 7α-Methyl-D-homo-testosterone-17β-bucyclate], the “Androgenic Potency” value in the assay with ventral prostate weight [2] is reported as 36.4–61.7^3.
Regarding `CCCCCCC(=O)O[C@H]1CC[C@H]2[C@@H]3CCC4=CC(=O)CC[C@]4(C)[C@H]3CC[C@]12C` [testosterone enanthate, reference compound], the “area under the curve (AUC, trapezoidal rule) of ventral prostate weight” value with ventral prostate weight [3] (single subcutaneous 0.6 mg in oily carrier) came out at 513 mg-weeks.

The record behind these values is patent US7196074B2, “Methods of making, using and pharmaceutical formulations comprising 7α, 11β-dimethyl-17β-hydroxyestra-4, 14-dien-3-one and 17 esters thereof” (The United States of America as represented by the …, priority 2000, dated 2007).
